Measurements reported in patent publication US20120108559A1, “RECEPTOR ACTIVATOR OF THE RANK RECEPTOR COMPLEX INHIBITOR” (THE TRUSTEES OF THE UNIVERSITY OF PENNSYLVANIA, priority 2009, published 2012).

System: murine osteoclast precursors
Experiment: TRANCE (RANKL)-induced osteoclast formation in vitro, TRAP assay
Format: cell-based
Conditions: osteoclast precursors cultured 3 days with murine CSF-1 (30 ng/mL) and TRANCE (300 ng/mL); FIG. 1
Procedure: The effects of the compound of Formula II-A-1 on TRANCE-mediated osteoclastogenesis were evaluated against murine osteoclast precursors using a TRAP (tartrate resistant acid phosphatase) assay. The techniques comprising this method are described more fully in U.S. Pat. No. 6,673,771.
Osteoclast precursors were cultured in 96-well plates (1×10^5/mL, 200 μL/well) for 3 days in the presence of murine CSF-1 (30 ng/mL) and TRANCE (300 ng/mL) with or without the compounds of Formulae III-1 and II-A-1 at the indicated concentration. After 3 days, the cells were fixed and stained for tartrate-resistant acid phosphatase (TRAP). TRAP-positive multinucleated cells were counted as osteoclast-like multinucleated cells.

Row | SMILES | inhibition of TRANCE induced osteoclast formation (TRAP-positive multinucleated cells)
1 | CC(=O)OCC12CCC(OC(C)=O)CC1(O)CC[C@@H]1[C@@H]2CCC2(C)C(C3=CC(=O)OC3)CCC12O (some centres unmarked) [II-A-1] | inhibited TRANCE induced osteoclast formation in vitro in a dose-dependent manner
2 | CC12CC[C@H]3[C@@H](CCC4(O)CC(OC(=O)CCC(=O)O)CCC34COC(=O)CCC(=O)O)C1(O)CCC2C1=CC(=O)OC1 (some centres unmarked) [III-1] | inhibited TRANCE induced osteoclast formation in vitro in a dose-dependent manner
